Data: paper PMC8746695, “Zinc-Chelating Compounds as Inhibitors of Human and Bacterial Zinc Metalloproteases” (Molecules, 2021)

Experiments:
[1] = target: T1, human MT1-MMP/MMP-14 (catalytic domain) (Homo sapiens, UniProt P50281); test: Inhibition of MMP-14, fluorescence quenched peptide substrate McaPLGL(Dpa)AR-NH2; format: biochemical; details: substrate McaPLGL(Dpa)AR-NH2 4 µM; 30 min pre-incubation at room temperature; calculated from IC50; read-out: Ki ± s.d. MMP-14
T1 construct: human MT1-MMP/MMP-14 (catalytic domain); purchased Calbiochem (San Diego, CA, USA)
Procedure: (§1) McaPLGL(Dpa)AR-NH2 was used as a substrate for MMP-9 and MMP-14, while McaRPPGFSAFK(Dnp)-OH was used as substrate for ALN, PLN and TLN. The reaction velocities/initial rates (v) were determined at 37 °C, at an excitation wavelength of 320 nm and an emission wavelength of 405 nm with a slit width of 10 nm using either a Perkin Elmer LS 50 Luminescence spectrometer and the FL WinLab Software Package (Perkin Elmer) or a Clario Star microplate reader (CLARIOstar® BMG LABTECH).
(§2) The test compounds were dissolved in 100% DMSO giving a concentration of 10 mM. A fixed substrate concentration of 4.0 µM in a total volume of 100 µL 0.1 M Hepes pH 7.5, 10 mM CaCl2, 0.005% Brij-35 and 1.0% DMSO, were used in all assays, except for ALN where the substrate concentration was 5.0 µM. The fixed enzyme concentrations were as follows; 0.05 nM MMP-9, 1.0 nM MMP-14, 1.4 nM ALN, 0.5 nM PLN and 0.21 nM TLN. Time-dependent inhibitory experiments without and with 100 μM of testing compounds were performed as follows. Compounds were either pre-incubated with the proteases for 15, 30 and 45 min at room temperature and the enzymatic reaction was started by adding the substrate, or not pre-incubated, i.e., the reaction was started by adding the protease to the mixture of substrate and compound. Control tests without compound present were performed in the same way. The reaction was followed for 30 min at 37 °C.
(§3) Enzymes with and without inhibitor were pre-incubated for 30 min at room temperature, and initial rate assays were performed as described above. Assays were performed using a Clario Star microplate reader (CLARIOstar® BMG LABTECH). The IC50 values were calculated in Graph Pad Prism 5 using Equation (1):(1) vi/v0=1/(1+10^(pIC50−pI)) where vi is the enzyme activity in the presence of inhibitor, v0 the activity in the absence of inhibitor, pI = −log [Inhibitor] in M and pIC50 = −log IC50 in M. All experiments were performed in at least triplicate.

recombinant human MMP-9 = target: T2, recombinant human MMP-9 (Homo sapiens, UniProt P14780); test: Inhibition of MMP-9, fluorescence quenched peptide substrate McaPLGL(Dpa)AR-NH2; format: biochemical; details: substrate McaPLGL(Dpa)AR-NH2 4 µM; 30 min pre-incubation at room temperature; calculated from IC50; read-out: Ki ± s.d. MMP-9
T2 construct: made in house; host or cells: Sf9 insect cells
T2 sequence (P14780 107-707 limits assumed): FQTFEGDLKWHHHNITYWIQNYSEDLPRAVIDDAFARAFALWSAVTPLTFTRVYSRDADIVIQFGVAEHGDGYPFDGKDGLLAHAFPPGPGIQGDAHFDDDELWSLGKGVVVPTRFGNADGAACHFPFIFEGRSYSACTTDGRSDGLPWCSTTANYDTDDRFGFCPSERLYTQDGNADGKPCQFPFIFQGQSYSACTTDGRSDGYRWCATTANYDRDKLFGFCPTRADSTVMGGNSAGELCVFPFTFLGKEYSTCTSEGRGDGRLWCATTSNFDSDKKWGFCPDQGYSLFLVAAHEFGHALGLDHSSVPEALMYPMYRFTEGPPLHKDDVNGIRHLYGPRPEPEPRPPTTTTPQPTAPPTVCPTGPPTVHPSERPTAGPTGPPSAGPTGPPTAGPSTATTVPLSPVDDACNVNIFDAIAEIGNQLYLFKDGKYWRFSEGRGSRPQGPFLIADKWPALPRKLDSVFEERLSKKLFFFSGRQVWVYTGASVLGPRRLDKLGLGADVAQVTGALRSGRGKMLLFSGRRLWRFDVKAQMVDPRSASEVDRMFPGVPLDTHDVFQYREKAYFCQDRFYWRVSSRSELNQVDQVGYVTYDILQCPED
Procedure: The expression and purification of recombinant human full-length proMMP-9 (rpMMP-9) from Sf9 insect cells were performed as described previously. The amount of proMMP-9 was estimated spectrophotometrically at 280 nm using ε280 nm = 114.36 mM^−1 cm^−1 [48]. Activation of the recombinant proMMP-9 was performed with APMA (auto-activation) as described previously. The amount of active MMP-9 was determined by active site titration using galardin also described previously.
as §1, §2, §3

aureolysin (ALN) = target: T3, aureolysin (ALN) (Staphylococcus aureus, UniProt P81177); test: Inhibition of aureolysin (ALN), substrate McaRPPGFSAFK(Dnp)-OH; format: biochemical
T3 construct: purchased BioCentrum Ltd. (Kraków, Poland)
T3 sequence (P81177 209-509): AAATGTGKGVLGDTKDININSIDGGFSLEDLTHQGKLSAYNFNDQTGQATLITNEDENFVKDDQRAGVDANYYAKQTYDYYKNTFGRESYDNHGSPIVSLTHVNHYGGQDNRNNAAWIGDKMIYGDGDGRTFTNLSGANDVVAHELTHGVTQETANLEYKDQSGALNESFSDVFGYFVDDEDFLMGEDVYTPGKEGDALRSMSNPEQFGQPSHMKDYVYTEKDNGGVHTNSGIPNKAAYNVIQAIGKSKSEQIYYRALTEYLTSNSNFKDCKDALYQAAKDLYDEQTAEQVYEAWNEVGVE
Procedure: as §1, §2, §3

pseudolysin (PLN) = target: T4, pseudolysin (PLN) (Pseudomonas aeruginosa, UniProt P14756); test: Inhibition of pseudolysin (PLN), substrate McaRPPGFSAFK(Dnp)-OH; format: biochemical
T4 construct: purchased Calbiochem (San Diego, CA, USA)
T4 sequence (P14756 198-498): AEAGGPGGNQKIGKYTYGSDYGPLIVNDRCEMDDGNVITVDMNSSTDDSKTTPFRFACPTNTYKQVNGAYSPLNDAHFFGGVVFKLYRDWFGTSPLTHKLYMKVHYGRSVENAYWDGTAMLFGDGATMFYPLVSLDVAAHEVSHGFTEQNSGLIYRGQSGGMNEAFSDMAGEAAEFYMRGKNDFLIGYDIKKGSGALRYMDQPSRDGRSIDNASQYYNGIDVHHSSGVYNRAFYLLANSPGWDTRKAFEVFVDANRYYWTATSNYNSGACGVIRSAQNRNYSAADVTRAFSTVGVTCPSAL
Procedure: as §1, §2, §3

thermolysin (TLN) = target: T5, thermolysin (TLN) (Bacillus thermoproteolyticus, UniProt P00800); test: Inhibition of thermolysin (TLN), substrate McaRPPGFSAFK(Dnp)-OH; format: biochemical; details: substrate McaRPPGFSAFK(Dnp)-OH 4 µM; 30 min pre-incubation at room temperature; calculated from IC50; read-out: Ki ± s.d. TLN
T5 construct: purchased Calbiochem (San Diego, CA, USA)
T5 sequence (P00800 233-548): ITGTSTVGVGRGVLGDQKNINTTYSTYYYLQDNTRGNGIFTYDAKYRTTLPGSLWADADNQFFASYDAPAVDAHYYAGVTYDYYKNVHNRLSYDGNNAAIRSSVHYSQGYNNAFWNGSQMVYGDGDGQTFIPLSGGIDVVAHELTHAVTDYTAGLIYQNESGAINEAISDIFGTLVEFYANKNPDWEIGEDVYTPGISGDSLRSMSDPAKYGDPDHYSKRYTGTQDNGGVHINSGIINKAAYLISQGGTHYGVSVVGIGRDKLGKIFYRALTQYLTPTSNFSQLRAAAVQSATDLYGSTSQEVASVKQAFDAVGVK
Procedure: as §1, §2, §3

[2] = in solution; read-out: Kd for zinc; cited from earlier work

Work on `c1ccc(CN(Cc2ccccn2)Cc2ccccn2)nc1` [TPA, tri(2-pyridinemethyl)amine, reference compound] yielded a Ki [1] of 1.2 ± 0.1 µM, a Ki (recombinant human MMP-9) of 15 ± 4 µM and a Ki (aureolysin (ALN)) of 16 ± 1 µM. For the same compound, the Ki (pseudolysin (PLN)) was 5 ± 2 µM, the Ki (thermolysin (TLN)) was 5.5 ± 0.9 µM and the Kd [2] was ~0.01 nM.
